Patent publication US20230017045A1, “PYRIDINE AND PYRIMIDINE CARBOXYLATE HERBICIDES AND METHODS OF USE THEREOF” (Dow AgroSciences LLC, priority 2017, published 2023)
Read-outs that look alike come from different tables or passages of the source.

System: test plant species
Experiment: Post-emergent herbicidal activity test (greenhouse, foliar spray, visual growth reduction)
Assay type: in vivo
Details: post-emergence, 336 h, 140 g ai/ha
In short: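 Visual percent injury (0-100) rated 14 d after treatment, relative to nontreated and solvent-blank plants. Test plants at first or second true leaf stage received an overhead track-sprayer application at 187 L/ha. Compounds were formulated in aqueous acetone/DMSO carrier containing crop oil concentrate and X-77 surfactant.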

[1] = ALOMY: blackgrass (Alopecurus myosuroides), 14 days after application, read-out: Visual Growth Reduction (%) 14 Days After Application, ALOMY
[2] = AMARE: redroot pigweed (Amaranthus retroflexus), 14 days after application, read-out: Visual Growth Reduction (%) 14 Days After Application, AMARE
[3] = AVEFA: wild oat (Avena fatua), 14 days after application, read-out: Visual Growth Reduction (%) 14 Days After Application, AVEFA
[4] = CHEAL: lambsquarters (Chenopodium album), 14 days after application, read-out: Visual Growth Reduction (%) 14 Days After Application, CHEAL
[5] = CIRAR: canada thistle (Cirsium arvense), 14 days after application, read-out: Visual Growth Reduction (%) 14 Days After Application, CIRAR
[6] = CYPES: yellow nutsedge (Cyperus esculentus), 14 days after application, read-out: Visual Growth Reduction (%) 14 Days After Application, CYPES
[7] = DIGSA: crabgrass (Digitaria sanguinalis), 14 days after application, read-out: Visual Growth Reduction (%) 14 Days After Application, DIGSA
[8] = ECHCG: barnyardgrass (Echinochloa crus-galli), 14 days after application, read-out: Visual Growth Reduction (%) 14 Days After Application, ECHCG
[9] = IPOHE: ivy-leaf morning glory (Ipomoea hederacea), 14 days after application, read-out: Visual Growth Reduction (%) 14 Days After Application, IPOHE
[10] = KCHSC: kochia (Bassia scoparia), 14 days after application, read-out: Visual Growth Reduction (%) 14 Days After Application, KCHSC
[11] = ORYSA: rice (Oryza sativa), 14 days after application, read-out: Visual Growth Reduction (%) 14 Days After Application, ORYSA
[12] = SETFA: giant foxtail (Setaria faberi), 14 days after application, read-out: Visual Growth Reduction (%) 14 Days After Application, SETFA
[13] = SORVU: grain sorghum (Sorghum vulgare), 14 days after application, read-out: Visual Growth Reduction (%) 14 Days After Application, SORVU
[14] = STEME: common chickweed (Stellaria media), 14 days after application, read-out: Visual Growth Reduction (%) 14 Days After Application, STEME
[15] = TRZAS: wheat, spring (Triticum aestivum), 14 days after application, read-out: Visual Growth Reduction (%) 14 Days After Application, TRZAS
[16] = blackgrass (Alopecurus myosuroides), 14 Days After Application, read-out: Visual Growth Reduction (%) ALOMY
[17] = canada thistle (Cirsium arvense), 14 Days After Application, read-out: Visual Growth Reduction (%) CIRAR
[18] = crabgrass (Digitaria sanguinalis), 14 Days After Application, read-out: Visual Growth Reduction (%) DIGSA
[19] = lambsquarters (Chenopodium album), 14 Days After Application, read-out: Visual Growth Reduction (%) CHEAL
[20] = redroot pigweed (Amaranthus retroflexus), 14 Days After Application, read-out: Visual Growth Reduction (%) AMARE
[21] = wild oat (Avena fatua), 14 Days After Application, read-out: Visual Growth Reduction (%) AVEFA
[22] = yellow nutsedge (Cyperus esculentus), 14 Days After Application, read-out: Visual Growth Reduction (%) CYPES
[23] = barnyardgrass (Echinochloa crus-galli), 14 Days After Application, read-out: Visual Growth Reduction (%) ECHCG
[24] = common chickweed (Stellaria media), 14 Days After Application, read-out: Visual Growth Reduction (%) STEME
[25] = giant foxtail (Setaria faberi), 14 Days After Application, read-out: Visual Growth Reduction (%) SETFA
[26] = ivy-leaf morning glory (Ipomoea hederacea), 14 Days After Application, read-out: Visual Growth Reduction (%) IPOHE
[27] = johnsongrass (Sorghum vulgare), 14 Days After Application, read-out: Visual Growth Reduction (%) SORVU
[28] = kochia (Bassia scoparia), 14 Days After Application, read-out: Visual Growth Reduction (%) KCHSC
[29] = rice (Oryza sativa), 14 Days After Application, read-out: Visual Growth Reduction (%) ORYSA
[30] = wheat, spring (Triticum aestivum), 14 Days After Application, read-out: Visual Growth Reduction (%) TRZAS

| SMILES | pest or weed control at 140 g/ha [1] | pest or weed control at 140 g/ha [2] | pest or weed control at 140 g/ha [3] | pest or weed control at 140 g/ha [4] | pest or weed control at 140 g/ha [5] | pest or weed control at 140 g/ha [8] | pest or weed control at 140 g/ha [9] | pest or weed control at 140 g/ha [10] | pest or weed control at 140 g/ha [11] | pest or weed control at 140 g/ha [12] | pest or weed control at 140 g/ha [13] | pest or weed control at 140 g/ha [14] | pest or weed control at 140 g/ha [15] | pest or weed control at 140 g/ha [16] | pest or weed control at 140 g/ha [17] | pest or weed control at 140 g/ha [18] | pest or weed control at 140 g/ha [19] | pest or weed control at 140 g/ha [20] | pest or weed control at 140 g/ha [21] | pest or weed control at 140 g/ha [22] | other results |
| --- | --- | --- | --- | --- | --- | --- | --- | --- | --- | --- | --- | --- | --- | --- | --- | --- | --- | --- | --- | --- | --- |
| COC(=O)c1nc(-c2ccc(C(F)(F)F)cc2OC)c(F)cc1Cl [F166, Methyl 3-chloro-5-fluoro-6-(2-methoxy-4-(trifluoromethyl)phenyl)picolinate] | 0 to 29% | 95 to 100% | 75 to 84% | 85 to 94% | 85 to 94% | 95 to 100% | 95 to 100% | 95 to 100% | 0 to 29% | 85 to 94% | 85 to 94% | 30 to 44% | 75 to 84% |  |  |  |  |  |  |  | pest or weed control at 140 g/ha [6]: 0 to 29%; pest or weed control at 140 g/ha [7]: 75 to 84% |
| CCCCOc1c(Cl)ccc(-c2ccc(Cl)c(C(=O)OC)n2)c1F [F279, Methyl 6-(3-butoxy-4-chloro-2-fluorophenyl)-3-chloropicolinate] |  |  |  |  |  | 0 to 29% | 0 to 29% | 0 to 29% | 0 to 29% | 0 to 29% | 0 to 29% | 0 to 29% | 0 to 29% | 0 to 29% | 0 to 29% | 0 to 29% | 0 to 29% | 0 to 29% | 0 to 29% | 0 to 29% |  |
| COC(=O)c1nc(-c2c(C)cc(C(F)(F)F)cc2Cl)ccc1Cl [F250, Methyl 3-chloro-6-(2-chloro-6-methyl-4-(trifluoromethyl)phenyl) picolinate] |  |  |  |  |  | 0 to 29% | 95 to 100% | 0 to 29% | 0 to 29% | 45 to 59% | 85 to 94% | 0 to 29% | 45 to 59% | 0 to 29% | 60 to 74% | 85 to 94% | 75 to 84% | 0 to 29% | 0 to 29% | 0 to 29% |  |
| COC(=O)c1nc(-c2c(Cl)cc(C(F)(F)F)cc2[N+](=O)[O-])ccc1Cl [F206, Methyl 3-chloro-6-(2-chloro-6-nitro-4-(trifluoromethyl)phenyl)picolinate] |  |  |  |  |  | 0 to 29% | 95 to 100% | 30 to 44% | 75 to 84% | 75 to 84% | 75 to 84% | 0 to 29% | 0 to 29% | 0 to 29% | 30 to 44% | 45 to 59% | 30 to 44% | 45 to 59% | 0 to 29% | 0 to 29% |  |
| COC(=O)c1nc(-c2ccc(C(F)(F)F)cc2Cl)ccc1C [F53, Methyl 6-(2-chloro-4-(trifluoromethyl)phenyl)-3-methylpicolinate] | 60 to 74% | 95 to 100% | 75 to 84% | 95 to 100% | 95 to 100% | 0 to 29% |  | 0 to 29% | 0 to 29% | 0 to 29% | 0 to 29% | 0 to 29% | 0 to 29% |  |  |  |  |  |  |  | pest or weed control at 140 g/ha [6]: 0 to 29%; pest or weed control at 140 g/ha [7]: 95 to 100% |
| COC(=O)c1nc(-c2ccc(C(F)(F)F)c3ccoc23)c(F)cc1Cl [F297, Methyl 3-chloro-5-fluoro-6-(4-(trifluoromethyl)benzofuran-7-yl) picolinate] |  |  |  |  |  | 0 to 29% | 95 to 100% | 45 to 59% | 0 to 29% | 60 to 74% | 60 to 74% | 0 to 29% | 0 to 29% | 0 to 29% | 85 to 94% | 75 to 84% | 85 to 94% | 85 to 94% | 0 to 29% | 0 to 29% |  |
| COC(=O)c1nc(-c2ccc(C3CC3(F)F)cc2Cl)ccc1Cl (centres unmarked) [F13, methyl 3-chloro-6-(2-chloro-4-(2,2 difluorocyclopropyl)phenyl) picolinate] | 0 to 29% | 75 to 84% | 0 to 29% | 85 to 94% | 85 to 94% |  |  |  |  |  |  |  |  |  |  |  |  |  |  |  | pest or weed control at 140 g/ha [6]: 0 to 29%; pest or weed control at 140 g/ha [7]: 0 to 29%; pest or weed control at 140 g/ha [23]: 0 to 29%; pest or weed control at 140 g/ha [24]: 0 to 29%; pest or weed control at 140 g/ha [25]: 0 to 29%; pest or weed control at 140 g/ha [26]: 95 to 100%; pest or weed control at 140 g/ha [27]: 60 to 74%; pest or weed control at 140 g/ha [28]: 60 to 74%; pest or weed control at 140 g/ha [29]: 0 to 29%; pest or weed control at 140 g/ha [30]: 0 to 29% |
| COC(=O)c1nc(-c2cccc(Cl)c2F)ccc1Cl [F277, Methyl 3-chloro-6-(3-chloro-2-fluorophenyl) picolinate] |  |  |  |  |  | 0 to 29% | 0 to 29% | 0 to 29% | 0 to 29% | 0 to 29% | 0 to 29% | 0 to 29% | 0 to 29% | 0 to 29% | 0 to 29% | 0 to 29% | 0 to 29% | 0 to 29% | 0 to 29% | 0 to 29% |  |
| COC(=O)c1nc(-c2ccc(C(F)(F)F)nc2Cl)ccc1Cl [F8, Methyl 2′,5-dichloro-6′-(trifluoromethyl)-[2,3′-bipyridine]-6-carboxylate] | 0 to 29% | 95 to 100% | 0 to 29% | 95 to 100% | 85 to 94% |  |  |  |  |  |  |  |  |  |  |  |  |  |  |  | pest or weed control at 140 g/ha [6]: 45 to 59%; pest or weed control at 140 g/ha [7]: 60 to 74%; pest or weed control at 140 g/ha [23]: 30 to 44%; pest or weed control at 140 g/ha [24]: 0 to 29%; pest or weed control at 140 g/ha [25]: 0 to 29%; pest or weed control at 140 g/ha [26]: 95 to 100%; pest or weed control at 140 g/ha [27]: 85 to 94%; pest or weed control at 140 g/ha [28]: 85 to 94%; pest or weed control at 140 g/ha [29]: 0 to 29%; pest or weed control at 140 g/ha [30]: 30 to 44% |
